Results on seven molecules are retold here after ChEMBL document CHEMBL5131462, “5'-Phosphonate modified oligoadenylates as potent activators of human RNase L” (Bioorg Med Chem, 2022).

Structures are written as SMILES. Some results are limits rather than exact numbers.

For test [1], the species on record is Homo sapiens. Description: Activation of human RNase L using [CY5]-r(C11-UUC7)- [BHQ2] as substrate assessed as cleavage of fluorescent substrate by measuring increase in fluorescence at 100 nM incubated for 30 mins by FRET assay relative to control. As to conditions: filed as activator.
A short description of test [2]: Activation of human RNase L using [CY5]-r(C11-UUC7)- [BHQ2] as substrate assessed as cleavage of fluorescent substrate by measuring increase in fluorescence incubated for 30 mins by FRET assay.
The species named for test [3] is Homo sapiens. Description: Activation of human RNase L assessed as reduction in Vmax using varying concentrations of [CY5]-r(C11-UUC7)- [BHQ2] as substrate incubated for 30 mins by FRET assay relative to control. Particulars: filed as activator. Details: scale not given: the % may be the effect or the level left.

Consider `Nc1ncnc2c1ncn2[C@@H]1O[C@H](COP(=O)(O)O[C@@H]2[C@H](O)[C@@H](COP(=O)(O)O[C@@H]3[C@H](O)[C@@H](CNC(=O)P(=O)(O)O)O[C@H]3n3cnc4c(N)ncnc43)O[C@H]2n2cnc3c(N)ncnc32)[C@@H](O)[C@H]1O`, for which the Activity in test [1] is more than 75%. In addition, the half-maximal effective concentration (EC50) (in general, the concentration at which the effect is half-maximal) in test [2] was 20.9 nM.
As to `Nc1ncnc2c1ncn2[C@@H]1O[C@H](COP(=O)(O)O[C@@H]2[C@H](O)[C@@H](COP(=O)(O)O[C@@H]3[C@H](O)[C@@H](CSCP(=O)(O)O)O[C@H]3n3cnc4c(N)ncnc43)O[C@H]2n2cnc3c(N)ncnc32)[C@@H](O)[C@H]1O`, the Activity in test [1] was more than 75%; in test [3] it was 33%. Besides, the EC50 in test [2] came out at 33.8 nM.
Take `Nc1ncnc2c1ncn2[C@@H]1O[C@H](COP(=O)(O)O[C@@H]2[C@H](O)[C@@H](COP(=O)(O)O[C@@H]3[C@H](O)[C@@H](COCP(=O)(O)O)O[C@H]3n3cnc4c(N)ncnc43)O[C@H]2n2cnc3c(N)ncnc32)[C@@H](O)[C@H]1O`: the Activity in test [1] was more than 75%; in test [3], 33%. Besides, the EC50 in test [2] was determined as 46.1 nM.
Regarding `Nc1ncnc2c1ncn2[C@@H]1O[C@H](COP(=O)(O)O[C@@H]2[C@H](O)[C@@H](COP(=O)(O)O[C@@H]3[C@H](O)[C@@H](COP(=O)(O)O)O[C@H]3n3cnc4c(N)ncnc43)O[C@H]2n2cnc3c(N)ncnc32)[C@@H](O)[C@H]1O`, the EC50 in test [2] amounted to 15.3 nM.
In the case of `Nc1ncnc2c1ncn2[C@@H]1O[C@H](COP(=O)(O)O[C@@H]2[C@H](O)[C@@H](COP(=O)(O)O[C@@H]3[C@H](O)[C@@H](COCC(O)P(=O)(O)O)O[C@H]3n3cnc4c(N)ncnc43)O[C@H]2n2cnc3c(N)ncnc32)[C@@H](O)[C@H]1O` (stereo partly specified), the results for the Activity in test [1] and in test [3] were more than 75% and 33%, respectively. For the same molecule, the EC50 in test [2] was 55.2 nM.
In the case of `C[C@]1(OCP(=O)(O)O)O[C@@H](n2cnc3c(N)ncnc32)[C@H](OP(=O)(O)OC[C@H]2O[C@@H](n3cnc4c(N)ncnc43)[C@H](OP(=O)(O)OC[C@H]3O[C@@H](n4cnc5c(N)ncnc54)[C@H](O)[C@@H]3O)[C@@H]2O)[C@@H]1O`, in test [1], the Activity was more than 75%. In test [2], the EC50 turned out to be 35.7 nM.
Consider `Nc1ncnc2c1ncn2[C@@H]1O[C@H](COP(=O)(O)O[C@@H]2[C@H](O)[C@@H](COP(=O)(O)O[C@@H]3[C@H](O)[C@@H](OCP(=O)(O)O)O[C@H]3n3cnc4c(N)ncnc43)O[C@H]2n2cnc3c(N)ncnc32)[C@@H](O)[C@H]1O`, for which the Activity in test [1] was more than 75%. Further, in test [2], the EC50 came to 18.9 nM.
